Assay results: PubChem BioAssay (NCI)
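Briefly, cells in 96-well plates were exposed to five compound concentrations for 48 h, and endpoints were estimated by linear interpolation. Here, GI50 denotes the concentration required for 50% inhibition of growth. TGI marks complete inhibition of growth.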

Assays:
Test in all cases: inhibition of tumour cell growth, NCI panel, 48 h
[1] = test system: COLO 205 colon
[2] = test system: A498 renal
[3] = test system: OVCAR-5 ovarian
[4] = test system: MALME-3M melanoma
[5] = test system: SK-MEL-2 melanoma
[6] = test system: HOP-92 NSCLC
[7] = test system: 786-0 renal
[8] = test system: NCI-H226 lung
[9] = test system: IGROV1 ovarian
[10] = test system: OVCAR-8 ovarian
[11] = test system: SNB-19 CNS
[12] = test system: SNB-75 CNS
[13] = test system: NCI/ADR-RES ovarian
[14] = test system: T-47D breast
[15] = test system: NCI-H522 lung
[16] = test system: UO-31 renal
[17] = test system: PC-3 prostate
[18] = test system: HT29 colon
[19] = test system: DU-145 prostate
[20] = test system: K-562 leukemia
[21] = test system: HCT-116 colon
[22] = test system: OVCAR-4 ovarian
[23] = test system: SN12C renal
[24] = test system: MCF7 breast
[25] = test system: SR leukemia
[26] = test system: U251 CNS
[27] = test system: SW-620 colon
[28] = test system: NCI-H460 lung
[29] = test system: MDA-MB-231 breast
[30] = test system: SK-MEL-28 melanoma
[31] = test system: ACHN renal
[32] = test system: NCI-H23 lung
[33] = test system: SF-268 CNS
[34] = test system: KM12 colon
[35] = test system: M14 melanoma
[36] = test system: OVCAR-3 ovarian
[37] = test system: MOLT-4 leukemia
[38] = test system: HCT-15 colon
[39] = test system: HOP-62 NSCLC
[40] = test system: UACC-257 melanoma
[41] = test system: HL-60(TB) leukemia
[42] = test system: CAKI-1 renal
[43] = test system: SF-539 CNS
[44] = test system: LOX IMVI melanoma
[45] = test system: SK-MEL-5 melanoma
[46] = test system: MDA-MB-435
[47] = test system: UACC-62 melanoma
[48] = test system: BT-549 breast
[49] = test system: CCRF-CEM leukemia
[50] = test system: TK-10 renal
[51] = test system: A549 NSCLC
[52] = test system: RPMI-8226 leukemia
[53] = test system: RXF 393 renal
[54] = test system: HCC-2998 colon
[55] = test system: SF-295 CNS
[56] = test system: HS 578T breast
[57] = test system: SK-OV-3 ovarian

CCN(Cc1ccncc1)c1ccc(CO)c(Cl)c1
GI50 [1]: 1.77 µM
TGI [1]: 6.34 µM
GI50 [2]: 0.0525 µM
TGI [2]: 0.203 µM
GI50 [3]: 0.152 µM
TGI [3]: 0.584 µM
GI50 [4]: > 100 µM
TGI [4]: > 100 µM
GI50 [5]: > 24.7 µM
TGI [5]: > 100 µM
GI50 [6]: 2.69 µM
TGI [6]: > 74.1 µM
GI50 [7]: > 57 µM
TGI [7]: > 100 µM
GI50 [8]: 0.127 µM
TGI [8]: 0.32 µM
GI50 [9]: 0.372 µM
TGI [9]: 2.48 µM
GI50 [10]: 96.9 µM
TGI [10]: > 100 µM
GI50 [11]: > 100 µM
TGI [11]: > 100 µM
GI50 [12]: > 77.8 µM
TGI [12]: > 100 µM
GI50 [13]: 81.1 µM
TGI [13]: > 100 µM
GI50 [14]: 0.367 µM
TGI [14]: 2.84 µM
GI50 [15]: > 100 µM
TGI [15]: > 100 µM
GI50 [16]: 24.9 µM
TGI [16]: > 100 µM
GI50 [17]: > 100 µM
TGI [17]: > 100 µM
GI50 [18]: 4.07 µM
TGI [18]: > 100 µM
GI50 [19]: > 100 µM
TGI [19]: > 100 µM
GI50 [20]: 5.62 µM
TGI [20]: > 100 µM
GI50 [21]: 0.352 µM
TGI [21]: > 100 µM
GI50 [22]: 0.548 µM
TGI [22]: 6.27 µM
GI50 [23]: > 100 µM
TGI [23]: > 100 µM
GI50 [24]: 0.589 µM
TGI [24]: > 100 µM
GI50 [25]: > 100 µM
TGI [25]: > 100 µM
GI50 [26]: 4.22 µM
TGI [26]: > 100 µM
GI50 [27]: 3.74 µM
TGI [27]: > 100 µM
GI50 [28]: 0.638 µM
TGI [28]: > 100 µM
GI50 [29]: > 100 µM
TGI [29]: > 100 µM
GI50 [30]: > 100 µM
TGI [30]: > 100 µM
GI50 [31]: > 100 µM
TGI [31]: > 100 µM
GI50 [32]: > 100 µM
TGI [32]: > 100 µM
GI50 [33]: > 100 µM
TGI [33]: > 100 µM
GI50 [34]: > 100 µM
TGI [34]: > 100 µM
GI50 [35]: > 100 µM
TGI [35]: > 100 µM
GI50 [36]: 1.14 µM
TGI [36]: 4.67 µM
GI50 [37]: > 100 µM
TGI [37]: > 100 µM
GI50 [38]: > 100 µM
TGI [38]: > 100 µM
GI50 [39]: 5.03 µM
TGI [39]: > 100 µM
GI50 [40]: 0.237 µM
TGI [40]: 0.738 µM
GI50 [41]: > 32 µM
TGI [41]: > 100 µM
GI50 [42]: 61.6 µM
TGI [42]: > 100 µM
GI50 [43]: > 100 µM
TGI [43]: > 100 µM
GI50 [44]: > 100 µM
TGI [44]: > 100 µM
GI50 [45]: 23.8 µM
TGI [45]: > 100 µM
GI50 [46]: > 100 µM
TGI [46]: > 100 µM
GI50 [47]: 0.333 µM
TGI [47]: 2.17 µM
GI50 [48]: > 100 µM
TGI [48]: > 100 µM
GI50 [49]: > 100 µM
TGI [49]: > 100 µM
GI50 [50]: 0.0945 µM
TGI [50]: 0.34 µM
GI50 [51]: 8.48 µM
TGI [51]: > 100 µM
GI50 [52]: 15.6 µM
TGI [52]: > 100 µM
TGI [53]: > 100 µM
GI50 [54]: 22 µM
TGI [54]: > 100 µM
GI50 [55]: 0.951 µM
TGI [55]: > 56.3 µM
GI50 [56]: > 100 µM
TGI [56]: > 100 µM
GI50 [57]: > 76.1 µM
TGI [57]: > 100 µM
